Measured values taken from patent US20220338471A1, “HONEY BEE-SAFE ACARICIDAL COMPOUNDS” (Kansas State University Research Foundation, priority 2019, published 2022).
Where “and” joins values, the source holds several entries; their conditions need not be identical. Identical values can stand only once. Like-named read-outs stand apart in the source and are kept apart here. Square brackets hold non-standard residues; d marks the D form. Ends that are not written are not given here. Peptide text beside a SMILES is read from it. Oic = O=C(O)[C@@H]1C[C@@H]2CCCC[C@@H]2N1

Experiments:
[1] = target: T1, varroa mite proctolin receptor (VdProctR) (Varroa destructor, UniProt A0A7T1TE40); assay: Receptor activity assay: luminescence in cells transiently transfected with varroa mite proctolin receptor; assay type: cell-based; details: for EC50: varroa mite proctolin receptor
T1 sequence (A0A7T1TE40 1-530): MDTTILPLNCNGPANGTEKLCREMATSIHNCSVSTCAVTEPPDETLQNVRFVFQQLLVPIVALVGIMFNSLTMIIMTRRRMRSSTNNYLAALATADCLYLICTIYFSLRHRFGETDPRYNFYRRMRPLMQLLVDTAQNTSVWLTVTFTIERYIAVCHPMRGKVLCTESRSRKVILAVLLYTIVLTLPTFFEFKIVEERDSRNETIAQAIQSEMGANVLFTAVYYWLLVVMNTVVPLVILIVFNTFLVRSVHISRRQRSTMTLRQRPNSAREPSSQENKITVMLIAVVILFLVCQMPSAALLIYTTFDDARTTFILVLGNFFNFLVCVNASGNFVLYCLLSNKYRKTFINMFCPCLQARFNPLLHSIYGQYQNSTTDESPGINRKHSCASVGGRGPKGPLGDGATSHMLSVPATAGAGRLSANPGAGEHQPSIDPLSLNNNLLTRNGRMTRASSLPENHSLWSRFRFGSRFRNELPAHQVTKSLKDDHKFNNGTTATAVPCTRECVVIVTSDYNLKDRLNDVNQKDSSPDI
Procedure: (§1) Approximately thirty hours after transfection, the cells were collected and preincubated with coelenterazine h for the functional assay. The ligands in serial dilutions were loaded into 96-well opaque plates. Cells treated with coelenterazine h were injected into each well on an Orion microplate luminometer (Berthold) luminescent plate reader. The luminescence was measured for 20 seconds immediately after the cell injections. Data analyses were performed to determine the accumulated luminescence value for 20 seconds after extraction of blank-well luminescence. A dose-response curve was generated and the EC50 (50% effective concentration) was calculated in Origin 7 (OriginLab).

Varroa mites = assay: Varroa mite toxicity test (forced feeding, 200 nL drop on the gnathosoma; paralysis/death counted); assay type: in vivo, Varroa destructor; details: 48-hour treatment, feeding assay
Procedure: Varroa mite toxicity test: Adult female Varroa mites were collected using a sugar roll method from honey bee hives located at the East Campus apiary of the University of Nebraska (Lincoln, Nebr. USA). The hives were not treated with chemicals for honey bee parasites or pathogens. The mites were sorted in the laboratory with a paint brush and tested within 4 h post collection. The mites were placed in 9 cm diameter Petri dishes (Fisher Scientific) lined with filter paper. The dorsal side of the mites was secured to a strip of tape placed on the filter paper. Ten mites were secured to the tape in each dish and three dishes were used for each treatment (i.e., 30 mites/treatment). The peptide mimics were prepared in autoclaved ddH2O to a concentration of 0.1 nM for 2334, 2336, and Ac-2442 and 3 nM for 2326. Each peptide mimic was delivered as a 200 nL aliquot to the gnathosoma of the mites with autoclaved ddH2O serving as the untreated control. Following exposure to the peptide mimics, the number of affected (i.e., dead and/paralyzed) was observed and recorded at 1, 2, 6, 12, 24, and 48 h. The percent effect for each treatment was analyzed using a one-way analysis of variance (ANOVA) with a Tukey's post-hoc test (GraphPad Prism, La Jolla, Calif.; p<0.05).
In the continued bioassay (FIG. 4 and FIG. 5), the toxicities were assessed by counting paralysis/death in feeding assay. […]

worker honey bees = assay: Injection into the thorax of worker honey bees (negative effects); assay type: in vivo, honey bee; details: injection of 50 nL at 200 μM into the thorax, 24-hour observation, n=4
Procedure: (§2) Honey bee FMRFamide receptor was cloned and expressed in the same system as described for the procotolin receptor. […] Potential effects of the peptidomimetics 2439, 2334, 2336, Ac-2442, and H2O control were tested by injections of the compounds into the thorax of worker honey bees.

[2] = tested on: honey bee FMRFamide receptor; assay: Activity on the honey bee FMRFamide receptor expressed in the same system; assay type: cell-based; details: in words
Procedure: as §1, §2

[3] = tested on: empty vector transfected cells; assay: Receptor activity assay, negative control: cells transfected with empty vector; assay type: cell-based; details: 10 μM proctolin
Procedure: as §1, with “Receptor activity assay: […] Approximately” for “Approximately”, “[…] The receptor” for “A dose-response curve”, “also tested with a variety of peptide analogues” for “generated”, “peptidomimetics.” for “the EC50 (50% effective concentration) was calculated in Origin 7 (OriginLab).”

Bombyx mori larval gut = details: cited from earlier work
honey bee queen = details: injection, 1 μL containing 1 μg; cited from earlier work
[4] = first set of experiments, EC50 relative to proctolin (0.22 nM)

Row | Compound | Activity at high concentrations compared with proctolin ([1]; at 1 μM and 10 μM) | Fold change [1, 4] | EC50 ([1]; first set of experiments, read-out: EC50) | Agonist activity / potency on the Varroa mite proctolin receptor, in words ([1]; in words) | Percent effect (paralyzed or dead mites) (Varroa mites) [%] | Negative effects in worker honey bees (worker honey bees) | EC50 ([1]; EC50 (nM), first set of experiments) [nM] | EC50 ([1]; EC50 (nM), second set of peptidomimetics) [nM] | Fold change ([1]; second set, EC50 relative to proctolin (14.19 nM)) | Activity on the honey bee FMRFamide receptor [2] | Activity on empty vector transfected cells [3] | Concentration required for hindgut contraction (Bombyx mori larval gut; Bombyx mori larval hindgut) [µM] | Concentration required in the midgut to slightly reduce leucine uptake (Bombyx mori larval gut; Bombyx mori larval midgut) [µM] | Egg-laying activity of the queen (honey bee queen)
1 | CC(C)C[C@H](NC(=O)[C@H](Cc1ccc(O)cc1)NC(=O)[C@@H](N)CCCNC(=N)N)C(=O)N1[C@H](C(=O)N[C@H](C(=O)O)[C@@H](C)O)C[C@@H]2CCCC[C@@H]21 [Analog 2336, RYL[Oic]T] (H-RYL[Oic]T-OH; N-terminus assumed) | higher than that of proctolin | 5.95 | 1.3 nM and 1.31 nM | strong agonists | 100 | did not show any negative effects |  |  |  |  |  |  |  | 
2 | RYLPT [Proctolin, RYLPT] |  | 1.00 |  |  |  |  | 0.22 | 14.2 | 1.00 | no activities | did not show any activity | 180 | 10 | increased the egg-laying activity of the queen
